Measurements taken from patent publication US11937624B2, “Food composition” (INNOVAFOOD AB, priority 2011, dated 2024).
Marks after values point to notes of the source that are not given here.

Columns and labels:
blood glucose = experiment: Postprandial blood glucose response to white wheat bread test meal with test drink (Example 1); type: in vivo, human
Description: (§1) Four different beverages were tested by the inventors; one reference, one with only the amino acid mixture, one with only CrPic, and one combining the amino acid mixture with CrPic. The amino acids used were L-leucine, L-isoleucine, L-lysine, L-valine and L-threonine.
(§2) The reference (“Ref”) drink was made out of tap water and aroma, poured into 330 mL bottles and carbonated with a Table Top Carbonator CF-121 (Omve) set at 10 g CO2/L.
(§3) The beverage with CrPic (“CrPic”) was prepared by dissolving one thawed pellet of concentrated CrPic solution (4.0 grams) in 308.0 grams of carbonated tap water and thereafter 0.19 grams of aroma was added. Additional CO2 was added just before serving with a Soda Streamer to mimic the amount in the Ref drink.
(§4) The beverage with amino acids (“5AA”) was prepared by dissolving 6.9 grams of the amino acid mixture in 305.1 grams of carbonated tap water and thereafter 0.19 grams of aroma was added. Additional CO2 was added just before serving with a Soda Streamer to mimic the amount in the Ref drink. See Table 7 for composition of amino acid mixture.
(§5) The beverage with amino acids and CrPic (“5AA+CrPic”) was prepared by dissolving 6.9 grams of the amino acid mixture and one thawed pellet of concentrated CrPic solution (4 grams) in 301.1 grams of carbonated tap water and thereafter 0.19 grams of aroma was added. Additional CO2 was added just before serving with a Soda Streamer to mimic the amount in the Ref drink.
(§6) The test meals consisted of sandwiches made of white wheat bread (Dollarfranska, Lockarps, Lockarp, Sweden), contributing with 50 grams of available starch, and the test drinks. The white wheat bread was spread with 10 grams of butter (Bregott, Arla, Stockholm, Sweden) and 24 grams of orange marmalade (kindly provided by Önos, Procordia Food, Eslöv). The sandwiches provided 9 grams of protein and an additional amount of carbohydrates from the marmalade and butter of 14 grams. A schematic overview of the composition of the different test meals is found in Table 2.
(§7) Nineteen healthy subjects, 11 men and 8 women, aged 38-60 (51±1 years; mean±SEM) and with body mass indexes of 24-30 (27.3±0.3 kg/m2; mean±SEM) were included in the study. All subjects had normal fasting blood glucose levels (5.6±0.1 mmol/L, mean±SEM).
(§8) The test subjects were instructed to eat a dinner of own choice (but with a low content of fiber) as well as an evening meal consisting of white wheat bread and a beverage, and to eat the same meals the evening before every test occasion. After the white wheat bread meal at around 9-10 p.m., the subjects were thereafter to restrain from ingesting anything but maximum a half glass of water on the morning of the test occasion.
(§9) Upon arrival at the laboratory at 07:45 on the test day, the subjects were sat to rest before a fasting capillary blood sample was drawn. Immediately thereafter, the test meal was served and a digital timer was started. Together with the drinks, a […] sandwich meal was served, containing 64 g available carbohydrates, 9.1 g protein and 11.7 g fat. The subjects were instructed to finish the meal in 10-15 minutes and to alternate between eating and drinking. All meals were well tolerated, and the subjects had no problems finishing eating within the 10-15 min period.
(§10) Capillary blood samples were taken at fasting and 15, 30, 45, 60, 90, 120 and 180 min after the ingestion of the meal for the analysis of blood glucose and serum insulin.
(§11) Blood glucose was immediately analyzed in serum with the use of a B-glucose analyzer (Hemocue AB, Ängelholm, Sweden). Serum tubes were centrifuged for 5 min (3000 rpm) and serum was frozen at −18° C. for the measurement of insulin. The serum insulin measurement was performed on an integrated immunoassay analyzer (CODA open Microplate System, Bio-Rad Laboratories, Hercules, CA) by using an enzyme immunoassay kit (Mercodia Insulin ELISA, Mercodia AB, Uppsala, Sweden). […]

serum insulin = experiment: Postprandial serum insulin response to white wheat bread test meal with test drink (Example 1); type: in vivo, human
Description: as §1, §2, §3, §4, §5, §6, §7, §8, §9, §10, §11

[1] = Table 5 comparison, 0-120 min, mean ± SEM, n=19 (5AA n=18)
[2] = Table 5 comparison, vs Ref meal
[3] = healthy subjects, carbonated water drink with sandwich meal, 0-60 min, mean ± SEM, n=19 (5AA n=18)
[4] = healthy subjects, carbonated water drink with sandwich meal, 0-120 min, mean ± SEM, n=19 (5AA n=18)
[5] = healthy subjects, carbonated water drink with sandwich meal, 0-180 min, mean ± SEM, n=19 (5AA n=18)

For Chromium tripicolinate [CrPic], the “Change in glucose iAUC 0-60 min as a percentage of the reference meal” value (blood glucose; 0-60 min, vs Ref meal) was −13%, the “Change in glucose iAUC 0-120 min as a percentage of the reference meal” value (blood glucose; 0-120 min, vs Ref meal) was −6% and the “Change in glucose iAUC 0-180 min as a percentage of the reference meal” value (blood glucose; 0-180 min, vs Ref meal) was −4%. The Glucose iAUC 0-120 min (blood glucose; [1]) was 189 ± 20.7 mmol·min/L, the “Change (%) of glucose iAUC 0-120 min” value (blood glucose; [2]) was −6% and the “Blood glucose iAUC 0-60 min” value (blood glucose; [3]) was 100.2 ± 9.3^ac mmol min/L. The “Blood glucose iAUC 0-120 min” value (blood glucose; [4]) was 189.1 ± 20.7^ab mmol min/L, the “Blood glucose iAUC 0-180 min” value (blood glucose; [5]) was 222.3 ± 25.6 mmol·min/L and the “Change in insulin iAUC 0-60 min as a percentage of the reference meal” value (serum insulin; 0-60 min, vs Ref meal) was −12%. For the same substance, the “Change in insulin iAUC 0-120 min as a percentage of the reference meal” value (serum insulin; 0-120 min, vs Ref meal) was −10%, the “Change in insulin iAUC 0-180 min as a percentage of the reference meal” value (serum insulin; 0-180 min, vs Ref meal) was −11% and the Insulin iAUC 0-120 min (serum insulin; [1]) was 15.4 ± 1.9 nmol·min/L. The “Change (%) of insulin iAUC 0-120 min” value (serum insulin; [2]) was −10%, the “Insulin iAUC 0-60 min” value (serum insulin; [3]) was 7.5 ± 0.9^a nmol · min/L and the “Insulin iAUC 0-120 min” value (serum insulin; [4]) was 15.4 ± 1.9^a nmol · min/L. The “Insulin iAUC 0-180 min” value (serum insulin; [5]) was 18.5 ± 2.6^b nmol · min/L.
